Each structure is given as a SMILES string.

The record followed here is US8513227B2, “Inhibition of inflammatory cytokine production with tanshinones” (The Feinstein Institute for Medical Research, priority 2006, dated 2013).

In this assay the test system is HMGB1. The assay is described as follows: Endotoxin-induced HMGB1 cytoplasmic translocation (immunocytochemistry, cell fractionation/western blot). Format: cell-based, murine. As to the method: Immunocytochemistry and cell fractionation/western blot. At 16 h after LPS stimulation, cellular HMGB1 was immunostained with anti-HMGB1 polyclonal antibodies, and images were acquired using fluorescent microscope (Carl Zeiss Microimaging, Inc., Thomwood, N.Y.) as previously described (Chen et al. 2004; Rendon-Mitchell et al. 2003). Alternatively, localization of HMGB1 was examined by a cell fractionation/western blotting technique as previously described (Tang et al. 2006). Cell fractionation is based on differential lysis of plasma and nuclear membranes by nonionic detergent (NP-40). Briefly, after selective lysis of the plasma membrane in low salt buffer (10 mM HEPES, pH 7.9; 10 mM KCl; 0.1 mM EDTA; 0.1 mM EGTA; 1 mM DTT; 0.5 mM PMSF, 1% NP-40), the intact nuclei was collected by a quick centrifugation step (7,000 g, 1 min, 4° C.), leaving the cytoplasmic fraction in the supernatant. The nuclei pellet was resuspended in NP-40 high salt buffer (20 mM HEPES, pH 7.9; 0.4 M NaCl; 1 mM EDTA; 1 mM EGTA; 1 mM DTT; 1 mM PMSF, 1% NP-40), and briefly sonicated to generate the nuclear fraction. After fractionation, the protein content of different fractions was determined by the Bradford method, and each fraction was assayed for levels of various protein by western blotting analysis using primary antibodies specific for HMGB1, a cytoplasmic protein (βactin, Santa Cruz Biotechnology), and a nuclear protein (PCNA, BD Biosciences).

With `Cc1c(S(=O)(=O)[O-])oc2c1C(=O)C(=O)c1c-2ccc2c1CCCC2(C)C.[Na+]` [TSNIIA-SS, tanshinone IIA sodium sulfonate], under “cell fractionation/western blot, FIG. 4B”, the “levels of HMGB1 in the cytoplasmic fractions after LPS” value is recorded as “dramatically reduced”. The “effect on LPS-induced HMGB1 cytoplasmic translocation” value (immunostaining 16 h post LPS, 100 μM, FIG. 4A) was “almost completely abrogated”. For the same molecule, the “effect on nuclear localization of HMGB1 in resting cells” value (resting cells, data not shown) was “did not affect”.
